The series in a line: Henry solubility constant Hcp at 298.15 K (mol/(m3 Pa)). As to conditions: reference: Atlas et al. (1982).

For the compound `ClC1C(Cl)C(Cl)C(Cl)C(Cl)C1Cl` (stereo not drawn) [α-1,2,3,4,5,6-hexachlorocyclohexane], the “Henry solubility constant Hcp” value was determined as 0.42.

On to `Clc1ccc(-c2cc(Cl)ccc2Cl)cc1` [2,4',5-trichlorobiphenyl], for which the “Henry solubility constant Hcp” value was determined as 0.011.

For the compound `Clc1cccc(-c2cccc(Cl)c2Cl)c1` [2,3,3'-trichlorobiphenyl], the “Henry solubility constant Hcp” value was determined as 0.012.

For the compound `Clc1ccc(Cl)c(-c2ccccc2Cl)c1` [2,2',5-trichlorobiphenyl], the “Henry solubility constant Hcp” value turned out to be 0.0099.

As for `ClC(Cl)=C(c1ccc(Cl)cc1)c1ccc(Cl)cc1` [1,1-dichloro-2,2-bis-(4-chlorophenyl)-ethene], the “Henry solubility constant Hcp” value was 0.0081.

On to `Clc1ccc(Cl)c(-c2cccc(Cl)c2Cl)c1` [2,2',3,5'-tetrachlorobiphenyl], for which the “Henry solubility constant Hcp” value was found to be 0.013.

In the case of `Clc1cc(Cl)c(-c2ccccc2Cl)c(Cl)c1` [2,2',4,6-tetrachlorobiphenyl], the “Henry solubility constant Hcp” value stood at 0.013.

On to `Clc1ccc(-c2ccc(Cl)c(Cl)c2)cc1` [3,4,4'-trichlorobiphenyl], for which the “Henry solubility constant Hcp” value was found to be 0.012.

In the case of `Clc1ccc(Cl)c(-c2cc(Cl)ccc2Cl)c1` [2,2',5,5'-tetrachlorobiphenyl], the “Henry solubility constant Hcp” value worked out at 0.011.

In the case of `Clc1ccccc1-c1cccc(Cl)c1Cl` [2,2',3-trichlorobiphenyl], the “Henry solubility constant Hcp” value came to 0.012.

Turning to `Clc1ccc(-c2ccccc2Cl)cc1` [2,4'-dichlorobiphenyl], the “Henry solubility constant Hcp” value was found to be 0.01.

Take `ClC1=C(Cl)[C@]2(Cl)[C@@H]3[C@@H](Cl)[C@@H](Cl)C[C@@H]3[C@@]1(Cl)C2(Cl)Cl` [cis-chlordane]: the “Henry solubility constant Hcp” value came to 0.011.

For the compound `ClC1=C(Cl)[C@]2(Cl)[C@H]3[C@H](Cl)[C@@H](Cl)C[C@H]3[C@@]1(Cl)C2(Cl)Cl` [trans-chlordane], the “Henry solubility constant Hcp” value was 0.0074.

`Clc1ccc(-c2ccc(Cl)c(Cl)c2Cl)cc1` [2,3,4,4'-tetrachlorobiphenyl]: the “Henry solubility constant Hcp” value was found to be 0.012.

The record behind these values is Sander's compilation of Henry's law constants (doi:10.1021/es00099a010).
